Data from patent US6407067B1, “Salts of thrombin inhibitors” (BASF Aktiengesellschaft, priority 1999, dated 2002).

Columns and labels:
[1] = Crystallinity assessed by Debye-Scherrer photographs; format: physicochemical; conditions: isolated solid
From the text: The crystallinity of the samples has been assessed on the basis of Debye-Scherrer photographs.

[2] = Stability test (storage at 70° C., 1 bar, content by HPLC); format: physicochemical
Description: The thermal decomposition of the compounds of the general formula I and II has been investigated in a stability test. […]
The substances were stored at 70° C., 1 bar. Measurements were in HPLC % areas

Molecule	Debye-Scherrer photograph (crystallinity) [1]	Stability on storage in an open vessel (relative content by HPLC) ([2]; 0 days) [HPLC % areas]	Stability on storage in an open vessel (relative content by HPLC) ([2]; 7 days)	Stability on storage in an open vessel (relative content by HPLC) ([2]; 14 days)
N-((Hydroxycarbonyl)methylene)-(R)-cyclohexylalanyl-(S)-3,4-dehydroproline 6-Amidino-3-picolinylamide (Betaine) [1st Example]	amorphous			
N=C(N)c1ccc(CNC(=O)[C@@H]2C=CCN2C(=O)[C@@H](CC2CCCCC2)NCC(=O)O)cn1.O=C(O)/C=C/C(=O)O [Fumarate, N-((hydroxycarbonyl)methylene)-(R)-cyclohexylalanyl-(S)-3,4-dehydroproline 6-Amidino-3-picolinylamide Fumarate]	amorphous	100	87.9 HPLC % areas	87.1 HPLC % areas
CC(=O)O.N=C(N)c1ccc(CNC(=O)[C@@H]2C=CCN2C(=O)[C@@H](CC2CCCCC2)NCC(=O)O)cn1 [Acetate, N-((Hydroxycarbonyl)methylene)-(R)-cyclohexylalanyl-(S)-3,4-d ehydroproline 6-Amidino-3-picolinylamide Acetate]	amorphous	100	92.6 HPLC % areas	87.2 HPLC % areas
N=C(N)c1ccc(CNC(=O)[C@@H]2C=CCN2C(=O)[C@@H](CC2CCCCC2)NCC(=O)O)cn1.O=C1NS(=O)(=O)c2ccccc21 [Saccharin salt, N-((Hydroxycarbonyl)methylene)-(R)-cyclohexylalanyl-(S)-3,4-dehydroproline 6-Amidino-3-picolinylamide Saccharinate]	crystalline	100	100 HPLC % areas	101 HPLC % areas
CC1=CC(=O)NS(=O)(=O)O1.N=C(N)c1ccc(CNC(=O)[C@@H]2C=CCN2C(=O)[C@@H](CC2CCCCC2)NCC(=O)O)cn1 [Acesulfame salt, N-((Hydroxycarbonyl)methylene)-(R)-cyclohexylalanyl-(S)-3,4-dehydroproline 6-Amidino-3-picolinylamide Acesulfamate]	crystalline	100	96,7 HPLC % areas	88,4 HPLC % areas
